Results reported in PubChem BioAssay (NCI).
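Exposure lasted 48 hours, with cells grown in 96-well plates and compounds tested at five concentrations. TGI denotes the concentration required for complete inhibition of growth.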

Legend:
Assay in all cases: NCI-60 cell line screen, 48 h
786-0 renal = tested on: 786-0 renal
A549 NSCLC = tested on: A549 NSCLC
ACHN renal = tested on: ACHN renal
BT-549 breast = tested on: BT-549 breast
CCRF-CEM leukemia = tested on: CCRF-CEM leukemia
COLO 205 colon = tested on: COLO 205 colon
DU-145 prostate = tested on: DU-145 prostate
EKVX NSCLC = tested on: EKVX NSCLC
HCC-2998 colon = tested on: HCC-2998 colon
HCT-116 colon = tested on: HCT-116 colon
HCT-15 colon = tested on: HCT-15 colon
HL-60(TB) leukemia = tested on: HL-60(TB) leukemia
HOP-62 NSCLC = tested on: HOP-62 NSCLC
HOP-92 NSCLC = tested on: HOP-92 NSCLC
HS 578T breast = tested on: HS 578T breast
HT29 colon = tested on: HT29 colon
IGROV1 ovarian = tested on: IGROV1 ovarian
K-562 leukemia = tested on: K-562 leukemia
KM12 colon = tested on: KM12 colon
M14 melanoma = tested on: M14 melanoma
MALME-3M melanoma = tested on: MALME-3M melanoma
MCF7 breast = tested on: MCF7 breast
MDA-MB-231 breast = tested on: MDA-MB-231 breast
MDA-N = tested on: MDA-N
MOLT-4 leukemia = tested on: MOLT-4 leukemia
NCI-H226 lung = tested on: NCI-H226 lung
NCI-H23 lung = tested on: NCI-H23 lung
NCI-H460 lung = tested on: NCI-H460 lung
NCI-H522 lung = tested on: NCI-H522 lung
NCI/ADR-RES ovarian = tested on: NCI/ADR-RES ovarian
OVCAR-3 ovarian = tested on: OVCAR-3 ovarian
OVCAR-4 ovarian = tested on: OVCAR-4 ovarian
OVCAR-5 ovarian = tested on: OVCAR-5 ovarian
OVCAR-8 ovarian = tested on: OVCAR-8 ovarian
PC-3 prostate = tested on: PC-3 prostate
RPMI-8226 leukemia = tested on: RPMI-8226 leukemia
RXF 393 renal = tested on: RXF 393 renal
SF-268 CNS = tested on: SF-268 CNS
SF-295 CNS = tested on: SF-295 CNS
SF-539 CNS = tested on: SF-539 CNS
SK-MEL-28 melanoma = tested on: SK-MEL-28 melanoma
SK-MEL-5 melanoma = tested on: SK-MEL-5 melanoma
SK-OV-3 ovarian = tested on: SK-OV-3 ovarian
SN12C renal = tested on: SN12C renal
SNB-19 CNS = tested on: SNB-19 CNS
SR leukemia = tested on: SR leukemia
SW-620 colon = tested on: SW-620 colon
T-47D breast = tested on: T-47D breast
TK-10 renal = tested on: TK-10 renal
U251 CNS = tested on: U251 CNS
UACC-257 melanoma = tested on: UACC-257 melanoma
UACC-62 melanoma = tested on: UACC-62 melanoma
A498 renal = tested on: A498 renal
CAKI-1 renal = tested on: CAKI-1 renal
LOX IMVI melanoma = tested on: LOX IMVI melanoma
MDA-MB-435 = tested on: MDA-MB-435
SK-MEL-2 melanoma = tested on: SK-MEL-2 melanoma
SNB-75 CNS = tested on: SNB-75 CNS
UO-31 renal = tested on: UO-31 renal

Measured: TGI

Cc1cccc2nc(-c3ccccc3)cc(=O)n12
not listed: A498 renal | CAKI-1 renal | LOX IMVI melanoma | MDA-MB-435 | SK-MEL-2 melanoma | SNB-75 CNS | UO-31 renal
> 100 µM: all other assays above

CC(=O)NC1C(OCc2ccccc2)OC(CO)C(O)C1OC(C)C(=O)NC(C(=O)NC(CCC(=O)NCCCC(=O)Nc1ccc2c(c1)CN1C(=O)c3ccccc3C1=N2)C(N)=O)C(C)C (stereo unspecified)
not listed: NCI-H226 lung | NCI-H522 lung | OVCAR-8 ovarian
> 100 µM: all other assays above

CCCN(CCc1ccc(-c2ccccc2)cc1)CCc1ccc2n[nH]nc2c1
25.5 µM: CAKI-1 renal
25.9 µM: NCI-H522 lung
36.2 µM: A498 renal
26.3 µM: HOP-62 NSCLC
13.6 µM: SK-MEL-28 melanoma
17.1 µM: UACC-257 melanoma
19.2 µM: T-47D breast
21.4 µM: HCT-15 colon
30.6 µM: SNB-75 CNS
26.8 µM: SNB-19 CNS
24.9 µM: 786-0 renal
28.5 µM: SK-OV-3 ovarian
28.1 µM: MDA-MB-231 breast | RPMI-8226 leukemia
28.6 µM: LOX IMVI melanoma | MDA-MB-435
37.6 µM: U251 CNS
18.1 µM: HCT-116 colon
23.6 µM: HT29 colon
15.2 µM: HOP-92 NSCLC
48.7 µM: SF-268 CNS
17.9 µM: SR leukemia
36.7 µM: NCI-H226 lung
33.6 µM: OVCAR-5 ovarian
30 µM: A549 NSCLC
19.7 µM: HCC-2998 colon
24 µM: SF-539 CNS | UACC-62 melanoma
23.9 µM: DU-145 prostate
34.1 µM: KM12 colon
27.4 µM: SN12C renal
22.8 µM: MALME-3M melanoma
33.4 µM: SK-MEL-2 melanoma
25.8 µM: NCI-H23 lung | OVCAR-3 ovarian
18.4 µM: K-562 leukemia
22.2 µM: BT-549 breast
51.8 µM: HS 578T breast
27.5 µM: EKVX NSCLC | SF-295 CNS
22.4 µM: UO-31 renal
36.3 µM: OVCAR-8 ovarian | SW-620 colon
25.4 µM: ACHN renal | M14 melanoma
47 µM: NCI/ADR-RES ovarian
33.1 µM: RXF 393 renal
> 51.2 µM: MCF7 breast
22.1 µM: IGROV1 ovarian | NCI-H460 lung | PC-3 prostate
15.8 µM: SK-MEL-5 melanoma
33.3 µM: OVCAR-4 ovarian
19.1 µM: MDA-N | MOLT-4 leukemia
9.07 µM: COLO 205 colon
25.7 µM: TK-10 renal
19.4 µM: CCRF-CEM leukemia
